Data published in patent publication US8552007B2, “Mesoionic pesticides” (E.I. du Pont de Nemours and Company, priority 2008, dated 2013).
Counter-ions that a name gives are not always drawn. Like-named read-outs stand apart in the source and are kept apart here.

Tests used:
[1] = system: potato leafhopper (Empoasca fabae); experiment: whole plant or invertebrate; assay type: in vivo; details: 144 h, Soleil bean plant, 6 days; for mortality at 50 ppm: sprayed at 50 ppm; for mortality at 250 ppm: sprayed at 250 ppm
Experimental: For evaluating control of potato leafhopper (Empoasca fabae) through contact and/or systemic means, the test unit consisted of a small open container with a 5-6-day-old Soleil bean plant (primary leaves emerged) inside. White sand was added to the top of the soil and one of the primary leaves was excised prior to application.
Test compounds were formulated and sprayed at 250 and 50 ppm, and the tests were replicated three times as described for Test A. After spraying, the test units were allowed to dry for 1 h before they were post-infested with 5 potato leafhoppers (18-21-day-old adults). A black, screened cap was placed on the top of the cylinder. The test units were held for 6 days in a growth chamber at 24° C. and 70% relative humidity. Each test unit was then visually assessed for insect mortality.

[2] = system: green peach aphid (Myzus persicae); experiment: whole plant or invertebrate; assay type: in vivo; details: 144 h, sprayed at 250 ppm, radish plant, 6 days
Text: For evaluating control of green peach aphid (Myzus persicae) through contact and/or systemic means, the test unit consisted of a small open container with a 12-15-day-old radish plant inside. This was pre-infested by placing on a leaf of the test plant 30-40 aphids on a piece of leaf excised from a culture plant (cut-leaf method). The aphids moved onto the test plant as the leaf piece desiccated. After pre-infestation, the soil of the test unit was covered with a layer of sand.
Test compounds were formulated and sprayed at 250 ppm as described for Test A. The applications were replicated three times. After spraying of the formulated test compound, each test unit was allowed to dry for 1 h and then a black, screened cap was placed on top. The test units were held for 6 days in a growth chamber at 19-21° C. and 50-70% relative humidity. Each test unit was then visually assessed for insect mortality.

[3] = system: corn planthopper (Peregrinus maidis); experiment: whole plant or invertebrate; assay type: in vivo; details: 144 h
Experimental: For evaluating control of corn planthopper (Peregrinus maidis) through contact and/or systemic means, the test unit consisted of a small open container with a 3-4-day-old maize plant (spike) inside. White sand was added to the top of the soil prior to application. Test compounds were formulated and sprayed at 250 and 50 ppm and replicated three times as described for Test A. After spraying, the test units were allowed to dry for 1 h before they were post-infested with ˜15-20 nymphs (18 to 21 day old) by sprinkling them onto the sand with a salt shaker. A black, screened cap was placed on the top of the cylinder. The test units were held for 6 days in a growth chamber at 22-24° C. and 50-70% relative humidity. Each test unit was then visually assessed for insect mortality.

[4] = system: cat flea (Ctenocephalides felis); experiment: whole plant or invertebrate; assay type: in vivo; details: 20 μL of 500 ppm solution on filter paper, adult fleas, 48 hours
Experimental: For evaluating control of the cat flea (Ctenocephalides felis), a test compound was solubilized in acetone:water (75:25) to a final test rate of 500 ppm. Then 20 μL of the 500 ppm solution was applied to filter paper in the bottom of a tube. The tube was allowed to dry for 3 hours. Then approximately 10 adult fleas were added to the tube and the tube was capped. The fleas were evaluated for mortality 48 hours later.

[5] = system: cat flea (Ctenocephalides felis); experiment: whole plant or invertebrate; assay type: in vivo; details: 30 ppm in bovine blood, adult fleas, 72 h
Experimental: For evaluating control of the cat flea (Ctenocephalides felis), a test compound was solubilized in propylene glycol/glycerol formal (60:40) and then diluted in bovine blood to a final test rate of 30 ppm. The treated blood was placed in a tube with the bottom of the tube covered with a membrane. Approximately 10 adult cat fleas were allowed to feed through the membrane on the treated blood. The adult fleas were evaluated for mortality 72 h later.

[6] = sprayed at 50 ppm, maize plant, 6 days, read-out: mortality
[7] = sprayed at 250 ppm, maize plant, 6 days, read-out: mortality

Row | SMILES | mortality at 250 ppm [1] [%] | mortality at 50 ppm [3, 6] [%] | mortality at 250 ppm [3, 7] [%] | mortality at 500 ppm [4] [%] | other results
1 | O=c1c(I)c([O-])[n+](CC(F)(F)F)c2ccccn12 [Compound 111] | ≥ 80 | ≥ 80 | ≥ 80 |  | mortality at 50 ppm [1]: ≥ 80%; mortality at 250 ppm [2]: ≥ 80%
2 | O=c1c(-c2ccc(Cl)nc2)c([O-])[n+](CC(F)(F)F)c2ccccn12 [Compound 570] | ≥ 80 | ≥ 80 | ≥ 80 |  | mortality at 50 ppm [1]: ≥ 80%
3 | COc1cccc(-c2ncc(C[n+]3c([O-])c(-c4ccccc4)c(=O)n4ccccc43)s2)c1 [Compound 520] |  |  |  | ≥ 50 | 
4 | COc1cccc(-c2ncc(C[n+]3c([O-])c(I)c(=O)n4ccccc43)s2)c1 [Compound 613, 2-hydroxy-3-iodo-1-[[2-(3-methoxyphenyl)-5-thiazolyl]methyl]-4-oxo-4H-pyrido[1,2-a]-pyrimidinium inner salt] | ≥ 80 | ≥ 80 | ≥ 80 |  | 
5 | CC(C)c1c([O-])[n+](CC(F)(F)F)c2ccccn2c1=O [Compound 115] |  |  | ≥ 80 | ≥ 50 | 
6 | O=c1c(-c2ccc(F)nc2)c([O-])[n+](CC(F)(F)F)c2ccccn12 [Compound 571] | ≥ 80 | ≥ 80 | ≥ 80 |  | 
7 | O=c1c(C2CCc3ccccc32)c([O-])[n+](Cc2ccc(Cl)nc2)c2ccccn12 (stereo not drawn) [Compound 757] |  |  |  |  | mortality at 50 ppm [3]: ≥ 80%; mortality at 250 ppm [3]: ≥ 80%
8 | O=C(c1c([O-])[n+](CC(F)(F)F)c2ccccn2c1=O)C(F)(F)F [Compound 711, 2-hydroxy-4-oxo-3-(2,2,2-trifluoroacetyl)-1-(2,2,2-trifluoroethyl)-4H-pyrido[1,2-a]-pyrimidinium inner salt] |  |  |  |  | mortality at 50 ppm [1]: ≥ 80%
9 | O=c1cc([O-])[n+](CC(F)(F)F)c2ccccn12 (as salt: salt) [Compound 610, 2-hydroxy-4-oxo-1-(2,2,2-trifluoroethyl)-4H-pyrido[1,2-a]-pyrimidinium inner salt] |  |  |  |  | melting point: 214 to 215 °C
10 | O=c1c(-c2ccncc2Cl)c([O-])[n+](CC(F)(F)F)c2ccccn12 [Compound 121] |  | ≥ 80 | ≥ 80 | ≥ 50 | mortality at 30 ppm [5]: ≥ 50%
11 | O=c1c(-c2ccccc2)c([O-])[n+](C2CCOCC2)c2ccccn12 [Compound 583] |  |  | ≥ 80 |  | 
12 | COc1cccc(-c2ccc(C[n+]3c([O-])c(-c4ccccc4)c(=O)n4ccccc43)cn2)c1 [Compound 599] |  | ≥ 80 |  | ≥ 50 | mortality at 30 ppm [5]: ≥ 50%
